According to EP0476120B1, “PROCESS FOR PREPARING EQUIMOLAR SALTS OF ASPARTIC ACID AND MAGNESIUM, MAGNESIUM ASPARTATE SALT OBTAINED BY SAID PROCESS AND ITS APPLICATIONS” (LA[…] SPINDLER, priority 1990, dated 1991):
Values joined by “and” are separate entries in the source; they are usually repeats but may differ in a detail not shown here. Equal values may be shown once. Read-outs that look alike come from different tables or passages of the source.

Tests used:
souris [1] = settings: mouse; for Nombre de passages "punis" (moyenne): 60 min before test, controls 5,8
Description: Le test est pratiqué chez des souris NMRI-HAN soumises à une diète hydrique préalable de 18 heures et réparties en séries de 15.
L'appareillage utilisé consiste en une boite en plexiglas dont le sol est constitué de 4 plaques métalliques séparées les unes des autres. Un circuit d'alimentation permet d'établir une différence de potentiel entre deux plaques adjacentes grâce à un contacteur. Le test est pratiqué en plaçant doucement une souris sur une des plaques du fond de l'appareil ; les plaques sont électrifiées chaque fois que la souris passe de l'une à l'autre, de telle sorte qu'elle reçoit alors un choc électrique au niveau des pattes. Les paramètres du choc sont les suivants : durée de l'impulsion électrique égale à 0,5 seconde ; intensité égale à 0,6 milliampères. Ce choc induit chez les animaux une réaction motrice évidente de fuite, la souris traversant souvent 2 à 3 plaques successivement. Les conditions expérimentales adoptées ont été les suivantes : exploration libre pendant 15 secondes, traversée punie pendant la minute suivante, les résultats étant exprimés en nombre de passages "punis" pendant cette minute. Soixante souris ont été réparties de la façon suivante :
Les administrations ont été réalisées par voie intra-gastrique, à partir de solutions aqueuses, sous un volume constant de 20 ml.kg⁻¹, 60 minutes avant le début du test. Les animaux contrôles ont reçu un même volume d'eau distillée.
Les administrations ont été réalisées par voie intra-gastrique, à partir de solutions aqueuses, sous un volume constant de 20 ml.kg⁻¹ par produit 60 minutes avant le début du test. Les animaux contrôles ont reçu un même volume d'eau distillée.
Dans un premier temps a été calculée la DA 50 (dose anxiolytique 50) du Diazépam (Valium® 10 mg - Roche, ampoule 2ml) seul, administré à des doses suivant une progression géométrique de base 0,25 et de raison 2, soit respectivement 0,25, 0,5 l et 2 mg.kg⁻¹.
La DA 50 est déterminée à partir du pourcentage d'animaux tranquillisés. Est considéré comme tranquillisé tout animal dont le nombre de passages punis est égal ou supérieur à 9, c'est-à-dire à une valeur représentant une augmentation d'au moins 50 % par rapport au score moyen d'animaux non traités.
Toutes les administrations ont été réalisées par voie intra-gastrique à partir de solutions aqueuses, sous un volume constant de 20 ml.kg⁻¹ (eau distillée pour le groupe contrôle). […] La veille du test, les souris sont soumises à une diète hydrique de 18 heures. La dernière ingestion est pratiquée une heure avant l'étude, concomitamment avec le diazépam (Valium® 10 mg - Roche, ampoules de 2 ml).

[2] = tested on: singes cynomolggus (Macaca fascicularis); settings: monkey
Description: L'étude a été réalisée chez sept singes cynomolggus (Macaca fascicularis), de sexe mâle et femelle, pesant entre 2 et 5 kg.
Un mois avant le début de l'étude, sous anesthésie générale (kétamine + xylazine) huit électrodes (boules d'argent) ont été implantées dans la table osseuse, au niveau des aires frontale, centrale, pariétale et occipitale droites et gauche. L'électrocorticogramme a été enregistré sur un électroencéphalographe REEGA mini-huit (Alvar Electronic) en dérivations monopolaires par rapport à une référence commune.
Les enregistrements ont été réalisés sur des animaux habitués au siège à contention, en position assise, dans une pièce calme mais non insonorisée, en ambiance lumineuse tamisée.
Les huit dérivations EEG ont été analysées simultanément par un Neuromapper 1620 (Neuroscience) qui extrait du signal les transformées de Fourier ("Fast Fourier Transform" : FFT). En fait, 90 échantillons de 2 secondes, soit 3 minutes de tracé exempt d'artefact, ont été analysés. Les données recueillies correspondent à l'amplitude (»V) de chacune des 5 bandes de fréquence EEG classiques selon les bornes suivantes : delta de 0 à 4 Hz ; thêta de 7 à 8 Hz ; alpha de 8 à 13 Hz, bêta₁ de 13 à 20 Hz ; bêta₂ de 20 à 30 Hz.
Pour chacune de ces bandes ont ensuite été calculées : • Les puissances absolues en »V² • les puissances relatives (%), c'est-à-dire la puissance de chacune des bandes de fréquence rapportée à la puissance totale du spectre (power) • la "SEF 95 % (Spectral Edge Frequency 95 %) qui est la fréquence en deçà de laquelle se situent 95 % de la puissance totale du spectre, • le rapport entre fréquences rapides et fréquences lentes : alpha+ bêta/delta + thêta ( α+β/δ+ϑ [formula] )
La dernière ingestion a précédé de 1 heure la seconde administration de diazépam.
Le diazépam (ampoules injectables - Valium® 10 - Roche) a été administré par voie orale, en solution aqueuse, sous un volume de 10 ml/singe, à des doses comprises entre 0,5 mg.kg⁻¹ et 4 mg.kg⁻¹ (doses différentes du fait d'une sensibilité individuelle propre à chaque sujet).
100 (le seuil de probabilité statistique choisi peut paraître élevé ; il est en rapport avec le faible nombre de sujets : n=7). L'ensemble de l'analyse statistique a été obtenu grâce au programme statistique SPSS/PC⁺ (SPSS Inc., Chicago)

souris [3] = settings: for Animaux tombés (%): controls 20,0
Experimental: Le test dit du "rota-rod" permet de juger le tonus musculaire et la coordination motrice de souris placées sur une tige tournant à vitesse constante.
(§1) Ces études ont été réalisées chez des souris mâles, de souche NMRI-Han, réparties au hasard en lots de 15 souris (séries traitées) et 20 souris (série contrôle).
La DA 50 s'exprime par la dose qui provoque en moins de 3 minutes la chute de 50 p. 100 des souris placées sur une tige en bois tournant à une vitesse de 16 tours/min (diamètre 1,7 cm). Ce test qui permet de juger de la coordination motrice des souris est adapté de la technique décrite par N.W. DUNHAN and T.S. MIYA (J. Am. Pharm. Assoc. 1957, 46 : 208)
(§2) Les doses ont été calculées selon une progression géométrique de base 700 (correspondant au 1/10 de la DL 50) et de raison 2, soit respectivement 175, 350, 700 et 1400 mg.kg⁻¹.
(§3) Les traitements sont réalisés 60 minutes avant le test.
(§4) Il est identique à celui décrit dans l'exemple précédent.
(§5) Les doses ont été calculées selon une progression géométrique de base 700 (correspondant au 1/10 de la DL 50) et de raison 2, soit respectivement 10,95; 21,9; 43,8; 87,5; 175; 350; 700 mg/kg. […] Les derniers traitements ont été réalisés 60 minutes avant le test.

souris [4] = settings: mouse
Description: as §1
La motilité a été mesurée à l'aide d'un actimètre "type Dews" (Brit. J. Pharmacol. 1953, 8 : 46). Les animaux sont placés un par un dans une enceinte rectangulaire en matière plastique transparente (mesures intérieures : L = 24 cm, l = 15 cm, h = 9,5 cm), couverte par un grillage métallique et traversée par deux faisceaux infra-rouges perpendiculaires situés à 2 cm au-dessus du plancher (médianes de l'enceinte); ces deux faisceaux viennent frapper deux cellules photo-électriques reliées à un compteur d'impulsions déclenché à chaque fois que l'animal coupe un des faisceaux. Les actimètres ont été placés dans une pièce non insonorisée mais en dehors de tout bruit aigu, à une température de l'ordre de 21°C.
L'activité motrice a été mesurée au cours des 5 premières minutes (exploration non anxiogène) puis entre 5 et 15 minutes (activité basale non anxiogène).
as §2, §3, §4, §5

[5] = repeated daily dosing (13 days), 10.95 mg/kg P.O., last dose 60 min before test
[6] = repeated daily dosing (13 days), 21.9 mg/kg P.O., last dose 60 min before test
[7] = repeated daily dosing (13 days), 43.8 mg/kg P.O., last dose 60 min before test, 43.8 mg/kg
[8] = repeated daily dosing (13 days), 43.8 mg/kg P.O., last dose 60 min before test, listed as Mag, 43.8 mg/kg
[9] = repeated daily dosing (13 days), 87.5 mg/kg P.O., last dose 60 min before test
[10] = repeated daily dosing (13 days), 175 mg/kg P.O., last dose 60 min before test
[11] = repeated daily dosing (13 days), 350 mg/kg P.O., last dose 60 min before test, 350 mg/kg
[12] = repeated daily dosing (13 days), 350 mg/kg P.O., last dose 60 min before test, listed as Mag, 350 mg/kg
[13] = repeated daily dosing (13 days), 700 mg/kg P.O., last dose 60 min before test
[14] = single dose 175 mg.kg⁻¹ P.O., 60 min before test
[15] = single dose 350 mg.kg⁻¹ P.O., 60 min before test
[16] = single dose 700 mg.kg⁻¹ P.O., 60 min before test
[17] = single dose 700 mg.kg⁻¹ P.O., 60 min before test, listed as Mag
[18] = single dose 1400 mg.kg⁻¹ P.O., 60 min before test

Substance: α-β-aspartate de magnésium
- Nombre de passages "punis" (moyenne) (souris [1]; single dose 300 mg.kg⁻¹ P.O.): n'accroît pas significativement
- Nombre de passages "punis" (moyenne) (souris [1]; single dose 300 mg.kg⁻¹ P.O., listed as Mag): 6,4
- Nombre de passages "punis" (moyenne) (souris [1]; single dose 600 mg.kg⁻¹ P.O.): accru significativement
- Nombre de passages "punis" (moyenne) (souris [1]; single dose 600 mg.kg⁻¹ P.O., listed as Mag): 8,3
- Nombre de passages "punis" (moyenne) (souris [1]; single dose 1200 mg.kg⁻¹ P.O.): accru significativement
- Nombre de passages "punis" (moyenne) (souris [1]; single dose 1200 mg.kg⁻¹ P.O., listed as Mag): 7,5
- dose optimum (propriétés tranquillisantes mineures) (souris [1]; single dose P.O.): 600 mg/kg
- "SEF 95%" augmentée ([2]; 50 mg.kg⁻¹ orally twice daily for two weeks, before diazepam): 0,5 Hz
- puissance relative de la bande β accrue ([2]; 50 mg.kg⁻¹ orally twice daily for two weeks, resting EEG, individual values of 4 of 7 subjects): 4,4% and 3,6% and 6,2% and 13%
- ondes delta accrues ([2]; 50 mg.kg⁻¹ orally twice daily for two weeks, individual values among the 3 other monkeys): 5% and 8%
- proportion relative de la bande β₂ ([2]; after two weeks of α-β-aspartate de magnésium, before diazepam, reference before any drug 20 %): 23%
- Animaux tombés (%) (souris [3]; mouse, 10,95 mg.kg⁻¹ P.O x13): 26,6%
- Animaux tombés (%) (souris [3]; mouse, 21,9 mg.kg⁻¹ P.O x13): 33,3%
- Animaux tombés (%) (souris [3]; mouse, 43,8 mg.kg⁻¹ P.O x13): 46,6%
- Animaux tombés (%) (souris [3]; mouse, 67,5 mg.kg⁻¹ P.O x13): 33,3%
- Animaux tombés (%) (souris [3]; mouse, 175,0 mg.kg⁻¹ P.O x13): 46,6%
- Animaux tombés (%) (souris [3]; mouse, 350,0 mg.kg⁻¹ P.O x13): 33,3%
- Animaux tombés (%) (souris [3]; mouse, 700,0 mg.kg⁻¹ P.O x13): 33,3%
- souris qui chutent de la tige tournante au cours des 3 minutes (souris [3]; mouse, single dose 175 mg.kg⁻¹ P.O., controls 25 %): 13%
- DA 50 (réduction du tonus musculaire, rota-rod) (souris [3]; mouse, single dose P.O., Litchfield-Wilcoxon, confidence limits (5 p. 100) 343 - 1091 mg.kg⁻¹): 612 mg/kg
- Activité motrice 0-5 minutes, nombre de coupures de faisceaux (moyenne) (souris [4]; [5]): 98
- Activité motrice 0-15 minutes, nombre de coupures de faisceaux (moyenne) (souris [4]; [5]): 221
- Activité motrice 5-15 minutes, nombre de coupures de faisceaux (moyenne) (souris [4]; [5]): 123
- Activité motrice 0-5 minutes, nombre de coupures de faisceaux (moyenne) (souris [4]; [6]): 104
- Activité motrice 0-15 minutes, nombre de coupures de faisceaux (moyenne) (souris [4]; [6]): 237
- Activité motrice 5-15 minutes, nombre de coupures de faisceaux (moyenne) (souris [4]; [6]): 133
- Activité motrice 0-15 minutes, nombre de coupures de faisceaux (moyenne) (souris [4]; repeated daily dosing (13 days), 43.8 mg/kg P.O., last dose 60 min before test): 232
- Activité motrice 0-5 minutes, nombre de coupures de faisceaux (moyenne) (souris [4]; [7]): élévation significative
- Activité motrice 5-15 minutes, nombre de coupures de faisceaux (moyenne) (souris [4]; [7]): élévation significative
- Activité motrice 0-5 minutes, nombre de coupures de faisceaux (moyenne) (souris [4]; [8]): 104
- Activité motrice 5-15 minutes, nombre de coupures de faisceaux (moyenne) (souris [4]; [8]): 128
- Activité motrice 0-5 minutes, nombre de coupures de faisceaux (moyenne) (souris [4]; [9]): 99
- Activité motrice 0-15 minutes, nombre de coupures de faisceaux (moyenne) (souris [4]; [9]): 195
- Activité motrice 5-15 minutes, nombre de coupures de faisceaux (moyenne) (souris [4]; [9]): 96
- Activité motrice 0-5 minutes, nombre de coupures de faisceaux (moyenne) (souris [4]; [10]): 106
- Activité motrice 0-15 minutes, nombre de coupures de faisceaux (moyenne) (souris [4]; [10]): 228
- Activité motrice 5-15 minutes, nombre de coupures de faisceaux (moyenne) (souris [4]; [10]): 122
- Activité motrice 0-15 minutes, nombre de coupures de faisceaux (moyenne) (souris [4]; repeated daily dosing (13 days), 350 mg/kg P.O., last dose 60 min before test): 248
- Activité motrice 0-5 minutes, nombre de coupures de faisceaux (moyenne) (souris [4]; [11]): élévation significative
- Activité motrice 5-15 minutes, nombre de coupures de faisceaux (moyenne) (souris [4]; [11]): élévation significative
- Activité motrice 0-5 minutes, nombre de coupures de faisceaux (moyenne) (souris [4]; [12]): 107
- Activité motrice 5-15 minutes, nombre de coupures de faisceaux (moyenne) (souris [4]; [12]): 141
- Activité motrice 0-5 minutes, nombre de coupures de faisceaux (moyenne) (souris [4]; [13]): 104
- Activité motrice 0-15 minutes, nombre de coupures de faisceaux (moyenne) (souris [4]; [13]): 230
- Activité motrice 5-15 minutes, nombre de coupures de faisceaux (moyenne) (souris [4]; [13]): 126
- Activité motrice 0-5 minutes, nombre de coupures de faisceaux (moyenne) (souris [4]; [14]): 100
- Activité motrice 0-15 minutes, nombre de coupures de faisceaux (moyenne) (souris [4]; [14]): 172
- Activité motrice 5-15 minutes, nombre de coupures de faisceaux (moyenne) (souris [4]; [14]): 72
- Activité motrice 0-5 minutes, nombre de coupures de faisceaux (moyenne) (souris [4]; [15]): 96
- Activité motrice 0-15 minutes, nombre de coupures de faisceaux (moyenne) (souris [4]; [15]): 213
- Activité motrice 5-15 minutes, nombre de coupures de faisceaux (moyenne) (souris [4]; [15]): 117
- Activité motrice 0-5 minutes, nombre de coupures de faisceaux (moyenne) (souris [4]; [16]): augmentation statistiquement significative
- Activité motrice 0-15 minutes, nombre de coupures de faisceaux (moyenne) (souris [4]; [16]): 258
- Activité motrice 5-15 minutes, nombre de coupures de faisceaux (moyenne) (souris [4]; [16]): augmentation statistiquement significative
- Activité motrice 0-5 minutes, nombre de coupures de faisceaux (moyenne) (souris [4]; [17]): 113
- Activité motrice 5-15 minutes, nombre de coupures de faisceaux (moyenne) (souris [4]; [17]): 145
- Activité motrice 0-5 minutes, nombre de coupures de faisceaux (moyenne) (souris [4]; [18]): 110
- Activité motrice 0-15 minutes, nombre de coupures de faisceaux (moyenne) (souris [4]; [18]): 214
- Activité motrice 5-15 minutes, nombre de coupures de faisceaux (moyenne) (souris [4]; [18]): 104
